Entries after “also recorded” stand apart in the source; their conditions may differ.
Experiment: Phase 1b study in atopic dermatitis: pharmacokinetics
Format: in vivo, human
Description: Upon signing the informed consent, the each subject underwent screening assessments from Day −30 to Day −1 prior to study drug administration. On Day 1 (baseline), eligible subjects were randomized, subjected to the Day 1/baseline assessments and received Compound 1 at 20, 40 or 80 mg or placebo, dependent on cohort and randomization schedule. At this visit, PK/PD samples were collected at predose and up to 8 hours (or up to 12 hours at selected sites). Subjects were monitored in clinic for 2 hours following the first study drug administration. Subjects returned to the clinic on Day 2 for PK and PD samples (24 hours post dose).
Pre-dose PK and PD samples were collected on Days 8 and 29 (last day of treatment). On Day 15, PK/PD samples were also collected at pre-dose and up to 8 hours post-dose and subjects returned on Day 16 for PK and PD samples (24 hours post dose). Subjects came in for additional safety assessments on Days 8, 22 and 29, as well as at the end of the follow up period (Day 43). Disease assessments were conducted on Days 1, Day 15 and Day 29.
Assessment of PK variables: The following PK parameters for Compound 1 were derived from the concentration-time data of Compound 1 after the first and Day 15 dose administration in the fasted state, as data allowed: Cmax, tmax, AUC0-∞, AUC0-t, AUC0-24, λz, t1/2, CL/F and Vd/F

[1] = human, plasma, oral, day 15, 20, 40 and 80 mg

SMILES: N#CCC1CCN(c2nc(Nc3ccc(N4CCC(O)CC4)cc3)c3c(=O)[nH]ncc3n2)CC1 [Compound 1, 2-(1-(4-((4-(4-hydroxypiperidin-1-yl)phenyl)amino)-5-oxo-5,6-dihydropyrimido[4,5-d]pyridazin-2-yl)piperidin-4-yl)acetonitrile]
- Dose dependence of exposure (Cmax, AUC), in words (20, 40 and 80 mg once daily): dose-dependent Cmax and AUC; also recorded: dose-dependent exposure
- Inter- and intra-individual variability of PK, in words (20, 40 and 80 mg once daily): low inter- and intra-individual variability; also recorded: minimum individual variability and accumulation
- Tmax [1]: 2 to 4 h
- half-life [1]: 10 to 14 h
